Key:
[1] = target: SARS-CoV-2 papain-like protease (Severe acute respiratory syndrome coronavirus 2, UniProt P0DTD1); experiment: SensoLyte 520 SARS-CoV-2 papain-like protease activity assay; type: biochemical; settings: for Maximal inhibition of PP (%): maximal observed within tested dose range (2.5-10 µM; pyridoxine 5-20 µM); for Dose at maximal observed inhibition of PP: within tested dose range
[2] = target: SARS-CoV-2 main protease (MPRO or 3CL) (Severe acute respiratory syndrome coronavirus 2, UniProt P0DTD1); experiment: SensoLyte 520 SARS-CoV-2 MPRO activity assay; type: biochemical; settings: for Maximal inhibition of MPRO (%): maximal observed within tested dose range (2.5-10 µM; pyridoxine 5-20 µM); for Dose at maximal observed inhibition of MPRO: within tested dose range
SARS-CoV-2 [3] = experiment: Inhibition of SARS-CoV-2-induced CPE in Vero cells (neutral red assay); type: cell-based; settings: for Maximal inhibition of CPE (%): MOI 0.1, 48 h, maximal observed within tested dose range (5-10 µM; pyridoxine 10-20 µM); for IC50: Severe acute respiratory syndrome coronavirus 2, three-parameter model, responses constrained to 0-100%; for Dose at maximal observed inhibition of CPE: within tested dose range
Vero cells = experiment: Toxicity of the drugs alone to Vero cells (cell toxicity study); settings: all tested doses
SARS-CoV-2 [4] = tested on: SARS-CoV-2; parameters: method as in Caly et al., 2020; settings: inhibition of viral replication; ref Caly et al., 2020; cited from earlier work

Compound | Maximal inhibition of PP (%) [1] | Dose at maximal observed inhibition of PP [1] | Maximal inhibition of MPRO (%) [2] | Dose at maximal observed inhibition of MPRO [2] | Maximal inhibition of CPE (%) (SARS-CoV-2 [3]) | IC50 (SARS-CoV-2 [3]) | Dose at maximal observed inhibition of CPE (SARS-CoV-2 [3]) | Toxicity to Vero cells (Vero cells) | Reduction in viral load (SARS-CoV-2 [4])
CC[C@H]1OC(=O)[C@H](C)[C@@H](O[C@H]2C[C@@](C)(OC)[C@@H](O)[C@H](C)O2)[C@H](C)[C@@H](O[C@@H]2O[C@H](C)C[C@H](N(C)C)[C@H]2O)[C@](C)(O)C[C@@H](C)C(=O)[C@H](C)[C@@H](O)[C@]1(C)O [Erythromycin] | 29.46% | 10.0 µM | 30.51% | 2.5 µM | 76% | 3.27 µM | 10 µM | – | –
Nc1nc2ncc(CNc3ccc(C(=O)N[C@@H](CCC(=O)O)C(=O)O)cc3)nc2c(=O)[nH]1 [Folic Acid] | 31.99% | 5 µM | 26.8% | 2.5 µM | 42% | – | 5 µM | not found to be toxic | –
Cc1ncc(CO)c(CO)c1O [Pyridoxine] | 17.46% | 20.0 µM | 45.17% | 20.0 µM | 63% | 9.29 µM | 20 µM | – | –
C=C[C@]1(C)C[C@@H](OC(=O)CS[C@@H]2C[C@H]3CC[C@@H](C2)N3C)[C@]2(C)[C@H](C)CC[C@]3(CCC(=O)[C@H]32)[C@@H](C)[C@@H]1O [Retapamulin] | 20.60% | 5 µM | 33.37% | 2.5 µM | 75% | 4.23 µM | 7.5 µM | – | –
Ivermectin | 34.34% | 10 µM | 38.07% | 5.0 µM | 10% | – | – | – | up to 5,000 fold

Source: publication PMC10711598, “Erythromycin, retapamulin, pyridoxine, folic acid, and ivermectin inhibit cytopathic effect, papain-like protease, and M^PRO enzymes of SARS-CoV-2” (Frontiers in Cellular and Infection Microbiology, 2023)
